From patent publication US20250073311A1, “DOSAGE REGIME” (ZEALAND PHARMA A/S, priority 2021, published 2025)
Numbered stars: 1 amine (or outer) side, 2 acyl side, 3 side chain; on linkers, the order of the positions; unused ones are H or OH. Square brackets hold non-standard residues; d marks the D form. Side chains are listed from the residue outwards. Peptide text beside a SMILES is read from it. * marks the point of attachment. C20 diacid = O=C(O)CCCCCCCCCCCCCCCCCCC(=O)*; γGlu = O=C(O)[C@H](CCC(=O)[*:2])N[*:1]; AEEA = NCCOCCOCC(=O)O; Aib = CC(C)(N)C(=O)O

Experiments:
human GLP-2 receptor = biological target: T1, human GLP-2 receptor (Homo sapiens, UniProt O95838, D470N); assay: GLP-2 receptor potency assay (cAMP AlphaScreen); assay type: cell-based; conditions: HEK293 cells expressing human GLP-2R, cAMP response; N/A = no detectable activity
T1 sequence (O95838 1-553 D470N): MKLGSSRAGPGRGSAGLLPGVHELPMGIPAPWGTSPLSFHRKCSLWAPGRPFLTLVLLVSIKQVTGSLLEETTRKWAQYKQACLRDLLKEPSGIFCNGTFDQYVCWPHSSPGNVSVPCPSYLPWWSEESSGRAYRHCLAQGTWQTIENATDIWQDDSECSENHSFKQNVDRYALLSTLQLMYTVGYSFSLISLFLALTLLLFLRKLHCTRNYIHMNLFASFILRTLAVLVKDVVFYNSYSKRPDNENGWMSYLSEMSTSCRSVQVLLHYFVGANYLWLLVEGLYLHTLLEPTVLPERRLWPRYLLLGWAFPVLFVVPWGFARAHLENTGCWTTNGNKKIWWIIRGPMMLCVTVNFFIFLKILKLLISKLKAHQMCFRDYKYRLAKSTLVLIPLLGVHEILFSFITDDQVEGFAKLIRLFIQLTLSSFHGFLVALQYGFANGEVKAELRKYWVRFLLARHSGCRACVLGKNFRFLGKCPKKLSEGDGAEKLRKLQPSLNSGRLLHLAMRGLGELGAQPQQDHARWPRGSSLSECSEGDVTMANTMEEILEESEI
Text: The hGLP2-R was purchased from MRC-geneservice, Babraham, Cambridge as an Image clone: 5363415 (11924-117). For subcloning into a mammalian expression vector, primers for subcloning were obtained from DNA-Technology, Risskov, Denmark. The 5′ and 3′ primers used for the PCR reaction include terminal restriction sites for cloning and the context of the 5′ primer is modified to a Kozak consensus without changing the sequence of the product encoded by the ORF. A standard PCR reaction was run using Image clone 5363415 (11924-117) as a template with the above mentioned primers and Polymerase Herculase II Fusion in a total vol. of 50 μl. The generated PCR product was purified using GFX PCR and Gel band purification kit, digested with restriction enzymes and cloned into the mammalian expression vector using Rapid DNA Ligation Kit. Ligation reaction was transformed to XL10 Gold Ultracompetent cells and colonies were picked for DNA production using Endofree Plasmid maxi kit. Subsequent sequence analysis was conducted by MWG Eurofins, Germany.
HEK293 cells were transfected using the Lipofectamine PLUS transfection method. The day before transfection, HEK293 cells were seeded in two T75 flasks at a density of 2×10^6 cells/T75 flask in cell culturing medium without antibiotics. […] Following 4 weeks in G418 selection, clones were picked and tested in a functional GLP-2 receptor potency assay as described below.
Data from test compounds eliciting an increase in the intracellular level of cAMP were normalized relative to the positive and negative control (vehicle) to calculate the EC50 and maximal response from the concentration response curve.

human GLP-1 receptor = biological target: T2, human GLP-1 receptor (Homo sapiens, UniProt P43220); assay: GLP-1 receptor potency assay (cAMP AlphaScreen); assay type: cell-based; conditions: HEK293 cells expressing human GLP-1R, cAMP response
T2 construct: expressed in transfected cells
Text: The cDNA encoding the human glucagon-like peptide 1 receptor (GLP-1R) (primary accession number P43220) was cloned from the cDNA BC112126(MGC:138331/IMAGE:8327594). The DNA encoding the GLP-1-R was amplified by PCR using primers encoding terminal restriction sites for subcloning. The 5′-end primers additionally encoded a near Kozak consensus sequence to ensure efficient translation. The fidelity of the DNA encoding the GLP-1-R was confirmed by DNA sequencing. The PCR products encoding the GLP-1-R were subcloned into a mammalian expression vector containing a neomycin (G418) resistance marker. The mammalian expression vectors encoding the GLP-1-R were transfected into HEK293 cells by a standard calcium phosphate transfection method. 48 hours post- transfection, cells were seeded for limited dilution cloning and selected with 1 mg/ml G418 in the culture medium. Following 3 weeks in G418 selection clones were picked and tested in a functional GLP-1 receptor potency assay as described below. One clone was selected for use in compound profiling.
GLP-1R and GLP-2 receptor potency assays.
The cAMP AlphaScreen® assay from Perkin Elmer was used to quantitate the cAMP response to activation of the GLP1 and GLP2 receptor, respectively. […]

[1] = biological target: human glucagon-like peptide 1 receptor (GLP-1R) (human, UniProt P43220); assay: cell-based or functional assay
[2] = biological target: T3, human GLP-2 receptor (hGLP2-R) (human, UniProt O95838); assay: cell-based or functional assay
T3 sequence: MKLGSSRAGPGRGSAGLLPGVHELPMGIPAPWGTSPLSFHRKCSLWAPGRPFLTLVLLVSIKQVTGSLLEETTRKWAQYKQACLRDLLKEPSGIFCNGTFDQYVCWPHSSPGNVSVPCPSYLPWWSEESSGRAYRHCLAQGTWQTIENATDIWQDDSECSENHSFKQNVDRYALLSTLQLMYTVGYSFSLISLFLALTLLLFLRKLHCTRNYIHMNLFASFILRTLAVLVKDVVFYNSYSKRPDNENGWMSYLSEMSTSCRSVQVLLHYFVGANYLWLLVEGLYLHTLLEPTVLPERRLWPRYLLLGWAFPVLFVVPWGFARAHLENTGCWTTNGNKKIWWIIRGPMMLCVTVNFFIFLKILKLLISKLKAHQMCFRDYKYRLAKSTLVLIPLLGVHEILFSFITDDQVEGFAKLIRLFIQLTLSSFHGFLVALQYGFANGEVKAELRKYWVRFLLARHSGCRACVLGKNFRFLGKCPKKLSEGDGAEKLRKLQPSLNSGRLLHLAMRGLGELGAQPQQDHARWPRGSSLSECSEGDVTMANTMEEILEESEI

T2 sequence (P43220 24-463): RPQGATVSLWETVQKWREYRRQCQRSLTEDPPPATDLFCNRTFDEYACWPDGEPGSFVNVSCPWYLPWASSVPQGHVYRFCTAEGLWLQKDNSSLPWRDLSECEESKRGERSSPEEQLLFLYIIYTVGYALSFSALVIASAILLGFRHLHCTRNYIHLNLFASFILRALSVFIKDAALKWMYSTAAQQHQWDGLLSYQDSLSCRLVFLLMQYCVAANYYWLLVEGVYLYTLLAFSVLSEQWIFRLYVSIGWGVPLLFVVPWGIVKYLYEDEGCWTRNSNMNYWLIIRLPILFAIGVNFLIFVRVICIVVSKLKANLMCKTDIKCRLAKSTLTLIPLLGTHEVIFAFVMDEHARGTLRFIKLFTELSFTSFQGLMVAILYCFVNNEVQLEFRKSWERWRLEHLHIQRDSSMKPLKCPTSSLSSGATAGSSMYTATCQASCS

Question: What does the source list for `CC[C@H](C)[C@H](NC(=O)[C@H](Cc1ccccc1)NC(=O)[C@H](CC(=O)O)NC(=O)[C@H](CCCNC(=N)N)NC(=O)[C@H](C)NC(=O)[C@H](C)NC(=O)[C@H](CCCCNC(=O)COCCOCCNC(=O)COCCOCCNC(=O)[C@H](CCCCN)NC(=O)[C@H](CCC(=O)O)NC(=O)[C@H](CCCCN)NC(=O)CC[C@H](NC(=O)CCCCCCCCCCCCCCCCCCC(=O)O)C(=O)O)NC(=O)[C@H](C)NC(=O)[C@H](CC(=O)O)NC(=O)[C@H](CC(C)C)NC(=O)[C@@H](NC(=O)[C@@H](NC(=O)[C@H](C)NC(=O)[C@H](CC(C)C)NC(=O)[C@H](CCC(=O)O)NC(=O)[C@H](CO)NC(=O)[C@@H](NC(=O)[C@H](Cc1ccccc1)NC(=O)[C@H](CO)NC(=O)CNC(=O)[C@H](CCC(=O)O)NC(=O)C(C)(C)NC(=O)[C@@H](N)Cc1c[nH]cn1)[C@@H](C)O)[C@@H](C)O)[C@@H](C)CC)C(=O)N[C@@H](C)C(=O)N[C@@H](Cc1c[nH]c2ccccc12)C(=O)N[C@@H](CC(C)C)C(=O)N[C@H](C(=O)N[C@@H](CCC(=O)O)C(=O)N[C@@H](Cc1c[nH]cn1)C(=O)N[C@@H](CCCCN)C(=O)N[C@H](C(=O)N[C@H](C(=O)N[C@@H](CC(=O)O)C(=O)O)[C@@H](C)O)[C@@H](C)CC)[C@@H](C)CC` [Compound 63] (H-H[Aib]EGSFTSELATILDAK([AEEA-AEEA-Lys-Glu-Lys-γGlu-C20 diacid])AARDFIAWLIEHKITD-OH)?
Answer: EC50 (human GLP-2 receptor): 0.17 nM; EC50 (human GLP-1 receptor): 0.31 nM

Question: How did the EC50 (human GLP-2 receptor) turn out when `CC[C@H](C)[C@H](NC(=O)[C@H](Cc1ccccc1)NC(=O)[C@H](CC(=O)O)NC(=O)[C@H](CCCCNC(=O)COCCOCCNC(=O)[C@H](CCCCN)NC(=O)[C@H](CCC(=O)O)NC(=O)[C@H](CCCCN)NC(=O)CC[C@H](NC(=O)CCCCCCCCCCCCCCCCCCC(=O)O)C(=O)O)NC(=O)[C@H](C)NC(=O)[C@H](C)NC(=O)[C@H](CCC(N)=O)NC(=O)[C@H](CCC(=O)O)NC(=O)[C@H](CC(=O)O)NC(=O)[C@H](CC(C)C)NC(=O)[C@@H](NC(=O)[C@@H](NC(=O)[C@H](C)NC(=O)[C@H](CC(C)C)NC(=O)[C@H](CCC(=O)O)NC(=O)[C@H](CO)NC(=O)[C@@H](NC(=O)[C@H](Cc1ccccc1)NC(=O)[C@H](CO)NC(=O)CNC(=O)[C@H](CCC(=O)O)NC(=O)C(C)(C)NC(=O)[C@@H](N)Cc1c[nH]cn1)[C@@H](C)O)[C@@H](C)O)[C@@H](C)CC)C(=O)N[C@@H](C)C(=O)N[C@@H](Cc1c[nH]c2ccccc12)C(=O)N[C@@H](CC(C)C)C(=O)N[C@H](C(=O)N[C@@H](CCC(=O)O)C(=O)N[C@@H](Cc1c[nH]cn1)C(=O)N[C@@H](CCCCN)C(=O)N[C@H](C(=O)N[C@H](C(=O)N[C@@H](CC(=O)O)C(=O)O)[C@@H](C)O)[C@@H](C)CC)[C@@H](C)CC` [Compound 64] (H-H[Aib]EGSFTSELATILDEQAAK([AEEA-Lys-Glu-Lys-γGlu-C20 diacid])DFIAWLIEHKITD-OH) was run?
Answer: 0.2 nM

Question: What about the EC50 (human GLP-1 receptor) of the same molecule?
Answer: 0.49 nM

Question: With `CC[C@H](C)[C@H](NC(=O)[C@H](Cc1ccccc1)NC(=O)[C@H](CC(=O)O)NC(=O)[C@H](CCCNC(=N)N)NC(=O)[C@H](C)NC(=O)[C@H](C)NC(=O)[C@H](CCC(N)=O)NC(=O)[C@H](CCC(=O)O)NC(=O)[C@H](CC(=O)O)NC(=O)[C@H](CC(C)C)NC(=O)[C@@H](NC(=O)[C@@H](NC(=O)[C@H](C)NC(=O)[C@H](CCCCNC(=O)COCCOCCNC(=O)[C@H](CCCCN)NC(=O)[C@H](CCC(=O)O)NC(=O)[C@H](CCCCN)NC(=O)CC[C@H](NC(=O)CCCCCCCCCCCCCCCCCCC(=O)O)C(=O)O)NC(=O)[C@H](CCC(=O)O)NC(=O)[C@H](CO)NC(=O)[C@@H](NC(=O)[C@H](Cc1ccccc1)NC(=O)[C@H](CO)NC(=O)CNC(=O)[C@H](CCC(=O)O)NC(=O)C(C)(C)NC(=O)[C@@H](N)Cc1c[nH]cn1)[C@@H](C)O)[C@@H](C)O)[C@@H](C)CC)C(=O)N[C@@H](C)C(=O)N[C@@H](Cc1c[nH]c2ccccc12)C(=O)N[C@@H](CC(C)C)C(=O)N[C@H](C(=O)N[C@@H](CCC(=O)O)C(=O)N[C@@H](Cc1c[nH]cn1)C(=O)N[C@@H](CCCCN)C(=O)N[C@H](C(=O)N[C@H](C(=O)N[C@@H](CC(=O)O)C(=O)O)[C@@H](C)O)[C@@H](C)CC)[C@@H](C)CC` [Compound 53] (H-H[Aib]EGSFTSEK([AEEA-Lys-Glu-Lys-γGlu-C20 diacid])ATILDEQAARDFIAWLIEHKITD-OH) as the molecule, how does the EC50 (human GLP-2 receptor) read?
Answer: 0.24 nM

B1: Compound 44 (peptide)
peptide: H-H[Aib]EGSFTSELATILEGK([AEEA-AEEA-γGlu-C20 diacid])AARDFIAWLIEHKITD-OH
SMILES: CC[C@H](C)[C@H](NC(=O)[C@H](Cc1ccccc1)NC(=O)[C@H](CC(=O)O)NC(=O)[C@H](CCCNC(=N)N)NC(=O)[C@H](C)NC(=O)[C@H](C)NC(=O)[C@H](CCCCNC(=O)COCCOCCNC(=O)COCCOCCNC(=O)CC[C@H](NC(=O)CCCCCCCCCCCCCCCCCCC(=O)O)C(=O)O)NC(=O)CNC(=O)[C@H](CCC(=O)O)NC(=O)[C@H](CC(C)C)NC(=O)[C@@H](NC(=O)[C@@H](NC(=O)[C@H](C)NC(=O)[C@H](CC(C)C)NC(=O)[C@H](CCC(=O)O)NC(=O)[C@H](CO)NC(=O)[C@@H](NC(=O)[C@H](Cc1ccccc1)NC(=O)[C@H](CO)NC(=O)CNC(=O)[C@H](CCC(=O)O)NC(=O)C(C)(C)NC(=O)[C@@H](N)Cc1c[nH]cn1)[C@@H](C)O)[C@@H](C)O)[C@@H](C)CC)C(=O)N[C@@H](C)C(=O)N[C@@H](Cc1c[nH]c2ccccc12)C(=O)N[C@@H](CC(C)C)C(=O)N[C@H](C(=O)N[C@@H](CCC(=O)O)C(=O)N[C@@H](Cc1c[nH]cn1)C(=O)N[C@@H](CCCCN)C(=O)N[C@H](C(=O)N[C@H](C(=O)N[C@@H](CC(=O)O)C(=O)O)[C@@H](C)O)[C@@H](C)CC)[C@@H](C)CC
Question: B1 was tested. Which “EC50 GLP-1 (nM), cAMP AlphaScreen” value [1] did it give?
Answer: 0.063 nM

Question: What about the “EC50 GLP-2 (nM), cAMP AlphaScreen” value [2] of the same molecule?
Answer: 0.14 nM
